Where two headings read alike, the source gives them in different places.
Tested on: MIA PaCa-2 cells
Experiment: Bru-seq analysis for nascent RNA synthesis (log2FC of genes, GSEA gene sets)
Type: cell-based, human
[1] = ACEVEDO_LIVER_CANCER_WITH_H3K27ME3_UP, C2, downregulated, 4 h
[2] = ACTWSNACTNY_UNKNOWN, TFBT, upregulated, 4 h
[3] = AP1_Q4_01, TFBT, upregulated, 4 h
[4] = BACH1_01, TFBT, upregulated, 4 h
[5] = BACH2_01, TFBT, upregulated, 4 h
[6] = BEGUM_TARGETS_OF_PAX3_FOXO1_FUSION_UP, C2, downregulated, 4 h
[7] = CCCNNNNNNAAGWT_UNKNOWN, TFBT, upregulated, 4 h
[8] = DACOSTA_UV_RESPONSE_VIA_ERCC3_COMMON_DN, C2, downregulated, 4 h
[9] = DACOSTA_UV_RESPONSE_VIA_ERCC3_XPCS_DN, C2, downregulated, 4 h
[10] = DAZARD_UV_RESPONSE_CLUSTER_G6, C2, downregulated, 4 h
[11] = DE_YY1_TARGETS_DN, C2, downregulated, 4 h
[12] = DOANE_BREAST_CANCER_CLASSES_DN, C2, downregulated, 4 h
[13] = EVI1_05, TFBT, upregulated, 4 h
[14] = GABRIELY_MIR21_TARGETS, C2, downregulated, 4 h
[15] = GATGKMRGCG_UNKNOWN, TFBT, upregulated, 4 h
[16] = GCCNNNWTAAR_UNKNOWN, TFBT, upregulated, 4 h
[17] = GGAANCGGAANY_UNKNOWN, TFBT, upregulated, 4 h
[18] = GGCNRNWCTTYS_UNKNOWN, TFBT, upregulated, 4 h
[19] = GGGYGTGNY_UNKNOWN, TFBT, upregulated, 4 h
[20] = GO_ALCOHOL_BIOSYNTHETIC_PROCESS, upregulated, 4 h
[21] = GO_ALCOHOL_METABOLIC_PROCESS, upregulated, 4 h
[22] = GO_CELLULAR_RESPONSE_TO_TOPOLOGICALLY_INCORRECT_PROTEIN, upregulated, 4 h
[23] = GO_CHROMATIN_ASSEMBLY_OR_DISASSEMBLY, upregulated, 4 h
[24] = GO_CHROMATIN_SILENCING_AT_RDNA, upregulated, 4 h
[25] = GO_CYTOSOLIC_LARGE_RIBOSOMAL_SUBUNIT, upregulated, 4 h
[26] = GO_CYTOSOLIC_RIBOSOME, upregulated, 4 h
[27] = GO_DNA_PACKAGING, upregulated, 4 h
[28] = GO_DNA_PACKAGING_COMPLEX, upregulated, 4 h
[29] = GO_HEXOSE_METABOLIC_PROCESS, upregulated, 4 h
[30] = GO_INTRINSIC_COMPONENT_OF_ENDOPLASMIC_RETICULUM_MEMBRANE, upregulated, 4 h
[31] = GO_IRE1_MEDIATED_UNFOLDED_PROTEIN_RESPONSE, upregulated, 4 h
[32] = GO_NEGATIVE_REGULATION_OF_RESPONSE_TO_OXIDATIVE_STRESS, upregulated, 4 h

Cc1cc(NC(=O)c2cnc(N3CCNCC3)cn2)c2ncccc2c1 [J28, N-(6-methylquinolin-8-yl)-5-(piperazin-1-yl)pyrazine-2-carboxamide]
ES: 0.474 | KEGG gene sets SYSTEMIC_LUPUS_ERYTHEMATOSUS and LYSOSOME: upregulation | NES: 1.626 | cholesterol biosynthesis pathway (curated gene sets): enrichment | expression of genes like INSIG1, DHCR7, MVK and FASN: Overexpression | synthesis of PCYT2, DOLK and HIST1H3B RNAs: upregulated in a dose-dependent manner | expression of ZNF816, IFT80, CACNG8 and GPR135 (4 h): significant decrease | Cell Cycle, Mitotic pathway (4 h of treatment): upregulated | log2FC (AC005614.2, downregulated noncoding gene, 4 h): −1.01 | log2FC (AC005726.2, downregulated protein-coding gene, 4 h): −0.99 | log2FC (AC006141.1, downregulated noncoding gene, 4 h): −1.18 | log2FC (AC007038.2, downregulated noncoding gene, 4 h): −1.08 | log2FC (AC007099.1, downregulated noncoding gene, 4 h): −1.04 | log2FC (AC007390.2, downregulated noncoding gene, 4 h): −1.54 | log2FC (AC007619.1, downregulated noncoding gene, 4 h): −1.30 | log2FC (AC009690.1, downregulated protein-coding gene, 4 h): −0.83 | log2FC (AC016949.1, downregulated noncoding gene, 4 h): −1.18 | log2FC (AC022335.1, downregulated protein-coding gene, 4 h): −0.86 | log2FC (AC022415.1, downregulated noncoding gene, 4 h): −1.20 | log2FC (AC040934.1, downregulated noncoding gene, 4 h): −0.97 | log2FC (AC046130.2, downregulated noncoding gene, 4 h): −1.16 | log2FC (AC091152.2, downregulated noncoding gene, 4 h): −1.18 | log2FC (AC135983.2, downregulated noncoding gene, 4 h): −1.16 | log2FC (AC244131.2, downregulated noncoding gene, 4 h): −1.22 | ES [1]: −0.444 | NES [1]: −1.897 | ES [2]: 0.432 | NES [2]: 1.640 | log2FC (ADNP-AS1, downregulated noncoding gene, 4 h): −1.07 | log2FC (AKAP5, downregulated protein-coding gene, 4 h): −0.90 | log2FC (AL596247.1, downregulated noncoding gene, 4 h): −2.37 | ES [3]: 0.371 | NES [3]: 1.550 | log2FC (AP001992.1, downregulated noncoding gene, 4 h): −1.36 | ES [4]: 0.419 | NES [4]: 1.762 | ES [5]: 0.390 | NES [5]: 1.654 | ES [6]: −0.621 | NES [6]: −2.034 | log2FC (CACNG8, downregulated protein-coding gene, 4 h): −1.10 | ES [7]: 0.409 | NES [7]: 1.550 | log2FC (CCDC190, downregulated protein-coding gene, 4 h): −0.91 | log2FC (CD274, downregulated protein-coding gene, 4 h): −0.90 | log2FC (CHML, downregulated protein-coding gene, 4 h): −0.94 | log2FC (CLEC2D, downregulated protein-coding gene, 4 h): −0.84 | ES [8]: −0.448 | NES [8]: −2.492 | ES [9]: −0.520 | NES [9]: −2.258 | ES [10]: −0.434 | NES [10]: −2.065 | ES [11]: −0.471 | NES [11]: −2.072 | ES [12]: −0.562 | NES [12]: −1.907 | ES [13]: 0.421 | NES [13]: 1.596 | log2FC (FERMT1, downregulated protein-coding gene, 4 h): −0.88 | log2FC (FP671120.1, downregulated noncoding gene, 4 h): −2.35 | ES [14]: −0.470 | NES [14]: −2.457 | ES [15]: 0.462 | NES [15]: 1.697 | ES [16]: 0.442 | NES [16]: 1.702 | log2FC (GCLM, downregulated protein-coding gene, 4 h): −0.85 | log2FC (GCNA, downregulated protein-coding gene, 4 h): −0.89 | ES [17]: 0.421 | NES [17]: 1.695 | ES [18]: 0.424 | NES [18]: 1.583 | ES [19]: 0.361 | NES [19]: 1.708 | ES [20]: 0.573 | NES [20]: 2.162 | ES [21]: 0.457 | NES [21]: 2.022 | ES [22]: 0.504 | NES [22]: 2.013 | ES [23]: 0.470 | NES [23]: 1.952 | ES [24]: 0.713 | NES [24]: 2.078 | ES [25]: 0.536 | NES [25]: 1.982 | ES [26]: 0.516 | NES [26]: 2.082 | ES [27]: 0.468 | NES [27]: 1.976 | ES [28]: 0.727 | NES [28]: 2.600 | ES [29]: 0.500 | NES [29]: 1.992 | ES [30]: 0.508 | NES [30]: 2.000 | ES [31]: 0.556 | NES [31]: 2.001 | ES [32]: 0.743 | NES [32]: 2.162
